Data on one compound can be found in patent US20240327339A1, “COMPOSITIONS AND METHODS FOR TREATING AND PREVENTING VIRAL INFECTIONS” (priority 2021, published 2024).

The IC90 is the concentration needed for an effect of 90%. By pIC50 is commonly meant the negative decadic logarithm of the IC50, by convention in mol/L.

SMILES strings stand for the structures. pIC50: −log10 of the molar value.

Assay [1] relates to SARS-CoV-2. Conditions: 90% inhibition of COVID-19 viral replication; Investigator Brochure; read-out: IC90 level; cited from earlier work.
Assay [2] deals with Measles virus. Briefly: Measles virus syncytia immunostaining. It counts as cell-based. The procedure:
Plate 4×10^4/well of Vero-E6 or Hep-2 cells to be 95-100% confluent the next day. The next day make fresh dilutions of Probenecid were made. From a stock concentration of 10 mM in 100% DMSO, dilutions were made with half DMSO and half DMEM with 4% BSA fraction. FBS inhibits some viruses. Media was decanted and dilutions of probenecid were added to cells. Controls: DMSO/Media mixture, Media with no Probenecid, Media with no virus. Probenecid dilutions were left on cells for 24 hrs. After 24 hrs, media was decanted and virus was added (MOI=0.01/well). Virus was diluted to MOI=0.01 per 100 uL with DMEM. Left virus inoculum on cells for 1 hr. After 1 hr, infection media was decanted and replaced with dilutions of Probenecid. For Immunostaining, plates were left for 24 hrs before fixing cells. For Plaque Assays, plates were left for 72 hrs before freezing at −80 C.
The immunostaining protocol generally included fixing cells with 4% formaldehyde in PBS (50 uL) for 15-20 min at room temp, rinsing cells 3× with PBS (100 uL), and optionally storing cells at 4° C. in PBS until ready to stain. Permeabilizing cells with 0.05% TritonX-100 in PBS (100 uL) for 10 min at room temp, rinsing cells 3× with PBS (100 uL), blocking with 3% BSA-PBS (100 uL) for 1 hr at 37° C. or overnight at 4° C. Blocking solution was removed and cells were incubated with primary antibody (mouse mAb uNP, Millipore MAB8906) at 1:10,000 dilution (100 uL) for 1 hour (antibody diluted in 3% BSA-PBS). Cells were washed 3× with KPL Buffer (100 uL), incubated for 45 min with secondary antibody (Goat uMouse conjugated with Alex flour 488) in the dark at 37° C. (antibody diluted in 3% BSA-PBS). Cells were washed 3× with KPL Buffer in the dark (100 uL), rapidly stained with DAPI (1 ug/mL) for 10 min in the dark, washed 3× with PBS in the dark and stored in 200 ul of PBS until visualization.
Experiments were designed to test the prophylactic effect of probenecid on measles virus infection. Cells were infected with measle virus with, or without, probenecid treatment and immunostained for syncytia. […]

For assay [3], the system named is adenovirus serotype 5 (Ad5). The assay is described as follows: Ad5 infection of A549 cells. It counts as cell-based. The conditions noted are these: only limited conditions tested.
Assay [4] concerns Burkholderia. Briefly: Bacterial replication in macrophage. The conditions noted are these: macrophage-associated bacteria.
Assay [5] concerns Memphis-37. The assay is described as follows: In vitro probenecid inhibition assay, Memphis-37 (plaque assay). The conditions noted are these: for pIC50 / IC90: human respiratory syncytial virus; for virus replication compared to control (DMSO only): Vero E6, HEp-2 and NHBE cells. It counts as cell-based, human RSV strain A.
Assay [6] relates to A/WSN/33 (H1N1). The conditions noted are these: Perwitasari et al. 2013; cited from earlier work.
[7] abbreviates: Vero C1008, Prophylaxis (24 h before infection), Vero E6 cells.
Setting [8] is: Vero C1008, Treatment (24 h after infection), Vero E6 cells.
The mark [9] stands for this setting: Prophylaxis (24 h before infection), HEp-2 cells.
Where [10] appears, read: Prophylaxis (24 h before infection), NHBE cells.
The mark [11] stands for this setting: Treatment (24 h after infection), HEp-2 cells.
The mark [12] stands for this setting: Treatment (24 h after infection), NHBE cells.

As to `CCCN(CCC)S(=O)(=O)c1ccc(C(=O)O)cc1` [Probenecid, 4-[(dipropylamino)sulfonyl] benzoic acid], the IC90 in assay [1] is 364 nM; in assay [5] (setting [7]) it was 270 nM; in assay [5] (setting [8]) it was 3600 nM; in assay [5] (setting [9]) it was 360 nM; in assay [5] (setting [10]), 1440 nM; in assay [5] (setting [11]) it was 4500 nM. In addition, in assay [5] (setting [12]), the IC90 came out at 1800 nM. The syncytia per well result in assay [2] (1 uM Probenecid, 24 hrs, NP fluorescence stain) is given as “no syncytia were detected”. Besides, in assay [2] (Hep-2 cells, other assays), the “concentration also effective on MeV” value is given as 0.03 UM. Also, the pIC50 in assay [2] (Measles morbillivirus, probenecid dilution assay, FIG. 14A, read-out: IC50 (average syncytia per well)) was 9.10; in assay [5] (setting [7]) it was 7.52; in assay [5] (setting [8]), 6.40; in assay [5] (setting [9]), 7.40; in assay [5] (setting [10]), 6.80; in assay [5] (setting [11]), 6.30. The results for the negative logarithm of the IC50 (pIC50) in assay [5] (setting [12]) and in assay [6] were 6.70 and 9.30, respectively. The effect on infection entry in assay [3] was “did not statistically significantly reduce infection”. The killing of bacteria result in assay [4] is reported as “did not kill bacteria”. Besides, the “virus replication compared to control (DMSO only)” value is reported as “significantly (**** p<0.0001) inhibited the virus replication” in assay [5] (prophylaxis 24 h before Memphis-37 infection, FIG. 5) and “significantly (**** p<0.0001) inhibited the virus replication” in assay [5] (treated 24 h after Memphis-37 infection, FIG. 6).
